{"source": "patent US10098895B2", "about": "“Treatment of symptoms related to neurodegenerative disorders through pharmacological dermal activation of cranial nerves” (GLIA, LLC, priority 2016, dated 2018)", "test_system": "chronic ocular GVHD", "experiment": "Example 6: third case of chronic ocular GVHD, Tearscope examination", "assay_type": "in vivo, human", "conditions": "progesterone 1% to forehead, single dose", "protocol": "A patient with chronic ocular GVHD was examined and found to have ocular surface disease in both eyes, including filamentary keratitis. Upon examination by Tearscope there was a lack of tear film production evident in both eyes along with pronounced filaments in the left eye. They were treated with progesterone 1% to their forehead and re-examined 50 minutes later by Tearscope.", "data": [{"smiles": "CC(=O)[C@H]1CC[C@H]2[C@@H]3CCC4=CC(=O)CC[C@]4(C)[C@H]3CC[C@]12C", "note": "[progesterone]", "values": [{"measurement": "comfort, patient-reported", "value": "improved comfort"}, {"measurement": "filaments in the left eye", "setting": "50 minutes later", "value": "flushing of the filaments in the left eye"}, {"measurement": "tear film production by Tearscope", "setting": "50 minutes later", "value": "production of tear film in secretions in both eyes"}]}]}
